Experimental data published in patent publication US6380216B1, “Use of (+)-α-(2,3-dimethoxyphenyl)-1-[2-(4-fluorophenyl) ethyl]-4-piperidinemethanol in treating depressive disorders and bipolar disorders” (Aventis Pharmaceuticals Inc., priority 1996, dated 2002).

Tests used:
Male Wistar rats = experiment: Chronic Mild Stress Model of Depression (CMS), sucrose intake
Description: CMS uses mild stressors, such as food and water deprivation, small temperature changes, changes of cage mates, etc. Over a period of weeks of exposure to the mild stressors, the animals gradually reduce their consumption of a highly preferred sucrose solution which persists (in untreated animals) for several weeks following the cessation of stress.
Male Wistar rats were brought into the laboratory two months before the start of the experiment at which time they weighed aprroximately 300 grams. Except as described below, the animals were singly housed, with food an eater freely available, and maintained on a 12 hour light/dark cycle (lights on at 8 AM) at a temperature of 22±° C.
The animals were first trained to consume a 1% sucrose solution; training consisted of eight 1 hour baseline tests in which sucrose was presented, in the home cage, following 14 hours food and water deprivation; intake was measured by weighing pre-weighed bottles containing the sucrose solution at the end of the test. Subsequently, sucrose consumption was monitored, under similar conditions, at weekly intervals throughout the whole experiment.
On the basis of their sucrose intakes in the final baseline test, the animals were divided into two matched groups. One group of animals was subjected to a chronic mild stress procedure for a period of 9 consecutive weeks. Each week of stress regime consisted of: two periods of food or water deprivation (12 and 14 hour), two periods of 45 degree cage tilt (12 and 14 h), two periods of intermittent overnight illumination (lights on and off every 2 hours), two 14 hour periods of soled cage (200 ml water in sawdust bedding), two 14 hour periods of paired housing, two 14 hour periods of low intensity stroboscopic illumination (150 flashes/min). Stressors were applied continuously throughout the day and night, and scheduled randomly. […] They were deprived of food and water for the 14 hours preceding each sucrose test, but otherwise food and water were freely available in the home cage. […] All drug injections were in a volume of 1 ml/kg body weight. Drugs were administered at 10 AM and sucrose tests were carried out 24 hours following the last drug treatment. After five weeks, the treatments were terminated and after one week of withdrawal a final sucrose test was carried out. Stress was continued throughout the period of treatment and withdrawal.
Results were analyzed by multiple analysis of variance, followed by Fisher's LSD test for post hoc comparisons of means.

D1 (dopamine) receptor = D1 (dopamine) receptor (Homo sapiens, UniProt P21728); experiment: affinity for the D1 (dopamine) receptor in in vitro models; assay type: binding
D2 (dopamine) receptor = D2 (dopamine) receptor (Homo sapiens, UniProt P14416); experiment: affinity for the D2 (dopamine) receptor in in vitro models; assay type: binding
α-1 receptor = experiment: affinity for the α-1 receptor in in vitro models; assay type: binding
[1] = system: cholinergic M1/M2 receptors; experiment: affinity for the cholinergic M1/M2 receptors; assay type: binding
Description: It is orally active, non-toxic at therapeutic doses and potent. It is also capable of being sealed-up for commercial synthesis. Additionally, neurochemical studies indicate that there is a serotonin/dopamine interaction following chronic administration of this compound as described in Life Sciences 56(25): 2209-2222 (1995), incorporated herein by reference. The combination of the foregoing characteristics produces a unique compound for treating patients having either Depressive Disorders of Bipolar Disorders.

Sequence of D1 (dopamine) receptor (P21728 whole entry): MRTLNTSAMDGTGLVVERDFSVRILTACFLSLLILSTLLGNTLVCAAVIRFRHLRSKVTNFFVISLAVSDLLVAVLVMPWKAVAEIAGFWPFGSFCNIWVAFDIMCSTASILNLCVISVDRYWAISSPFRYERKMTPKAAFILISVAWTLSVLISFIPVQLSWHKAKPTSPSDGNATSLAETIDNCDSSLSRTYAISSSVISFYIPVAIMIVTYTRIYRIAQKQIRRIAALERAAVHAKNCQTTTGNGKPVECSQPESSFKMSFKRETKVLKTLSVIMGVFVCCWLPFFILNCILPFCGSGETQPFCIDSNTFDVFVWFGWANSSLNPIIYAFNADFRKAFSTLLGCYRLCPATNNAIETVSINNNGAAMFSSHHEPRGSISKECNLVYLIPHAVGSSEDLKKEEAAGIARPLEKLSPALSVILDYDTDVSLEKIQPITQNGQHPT
Sequence of D2 (dopamine) receptor (P14416 whole entry): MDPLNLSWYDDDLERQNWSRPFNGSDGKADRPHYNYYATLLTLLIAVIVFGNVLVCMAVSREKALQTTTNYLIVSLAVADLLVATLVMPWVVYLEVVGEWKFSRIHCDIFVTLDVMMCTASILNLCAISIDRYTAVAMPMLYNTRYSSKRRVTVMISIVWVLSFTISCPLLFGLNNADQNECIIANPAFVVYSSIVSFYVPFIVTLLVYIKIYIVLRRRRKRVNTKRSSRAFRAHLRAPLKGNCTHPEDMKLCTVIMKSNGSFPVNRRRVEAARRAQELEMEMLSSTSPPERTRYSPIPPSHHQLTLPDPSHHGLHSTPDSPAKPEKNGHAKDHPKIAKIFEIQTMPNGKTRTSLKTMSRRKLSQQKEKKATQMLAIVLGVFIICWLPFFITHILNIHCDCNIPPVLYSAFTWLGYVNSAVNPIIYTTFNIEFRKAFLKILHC

Row | SMILES | effect on sucrose intake in control animals (Male Wistar rats; control (unstressed) rats, 10 mg/kg ip daily, five weeks) | weeks of treatment after which sucrose intake was significantly increased from Week 0 scores (Male Wistar rats; stressed rats, 10 mg/kg ip daily) | sucrose intake after five weeks of treatment compared with controls (Male Wistar rats; stressed rats, 10 mg/kg ip daily, Week 5) | effect on sucrose intake in stressed animals (Male Wistar rats; stressed rats, 10 mg/kg ip daily, five weeks) | sucrose intake one week after withdrawal from the drug (Male Wistar rats; stressed rats, 10 mg/kg ip, one week after withdrawal) | affinity for the D1 (dopamine) receptor (D1 (dopamine) receptor) | affinity for the D2 (dopamine) receptor (D2 (dopamine) receptor) | affinity for the α-1 receptor (α-1 receptor) | affinity for the cholinergic M1/M2 receptors [1] | effect on sucrose intake in control animals (Male Wistar rats; control (unstressed) rats, 0.002, 0.02 and 0.2 mg/kg orally daily, five weeks) | sucrose intakes one week after withdrawal from the treatment (Male Wistar rats; control and stressed rats, 0.002, 0.02 and 0.2 mg/kg orally, one week after withdrawal) | weeks of treatment after which sucrose intake was significantly increased from initial scores (Week 0) (Male Wistar rats; stressed rats, 0.02 mg/kg orally daily) | amount of sucrose solution drunk at the end of treatment period (Week 5) (Male Wistar rats; stressed rats, 0.02 mg/kg orally daily, Week 5) | weeks of treatment after which sucrose intake was significantly increased from initial scores (Week 0) (Male Wistar rats; stressed rats, 0.2 mg/kg orally daily) | amount of sucrose solution drunk at the end of treatment period (Week 5) (Male Wistar rats; stressed rats, 0.2 mg/kg orally daily, Week 5) | effect on sucrose intake in stressed animals (Male Wistar rats; stressed rats, 0.002, 0.02 and 0.2 mg/kg orally daily, five weeks (overall Treatment effect)) | effect on sucrose intake throughout the whole treatment period (Male Wistar rats; stressed rats, lowest dose 0.002 mg/kg orally daily, five weeks)
1 | CN(C)CCCN1c2ccccc2CCc2ccccc21 [Imipramine, reference compound] | no significant effect | four | no significant differences between drug-treated stressed animals and drug- and saline-treated controls | gradual increase of sucrose intake | maintained at similar level |  |  |  |  |  |  |  |  |  |  |  | 
2 | COc1cccc(C(O)C2CCN(CCc3ccc(F)cc3)CC2)c1OC (stereo not drawn) [THE COMPOUND, (+)-α-(2,3-dimethoxyphenyl)-1-[2-(4-fluorophenyl)ethyl]-4-piperidinemethanol] |  |  |  |  |  | greater than 100 nM | greater than 100 nM | greater than 100 nM | little affinity | no significant effect | not significantly changed | two | comparable to that of vehicle-treated controls and significantly higher than that of vehicle-treated stressed animals | three | comparable to that of vehicle-treated controls and significantly higher than that of vehicle-treated stressed animals | gradually reversed the CMS-induced deficit in sucrose intake | no significant effect
